What was measured:
Homo sapiens = organism: Homo sapiens; assay: The compound was tested for inhibition of human splenocyte proliferation by [3H]thymidine incorporation; assay type: functional, organism-based
Mus musculus = organism: Mus musculus; assay: The compound was tested for inhibition of murine splenocyte proliferation by [3H]thymidine incorporation; assay type: functional, organism-based

Row | Compound | EC50 (Homo sapiens) [nM] | EC50 (Mus musculus) [nM]
1 | CCCCC(C)CC(C)C(=O)N(C)[C@@H](CC(C)C)C(=O)N[C@H](C(=O)N(C)[C@H](C(=O)N1C[C@@H](O)C[C@H]1C(=O)N1C(=O)C=CC1C)C(C)C)C(C)OC(C)=O (some centres not stated) | 0.02 | 0.02
2 | CCCCC(C)CC(C)C(=O)N(C)[C@@H](CC(C)C)C(=O)N[C@H](C(=O)N(C)[C@H](C(=O)N1C[C@@H](O)C[C@H]1C(=O)N1C(=O)C=CC1C)C(C)C)C(C)O (some centres not stated) | 0.04 | 0.006
3 | CCCCC(C)CC(C)C(=O)N(C)[C@@H](CC(C)C)C(=O)N[C@H](C(=O)N(C)[C@H](C(=O)N1C[C@@H](OC(C)=O)C[C@H]1C(=O)N1C(=O)C=CC1C)C(C)C)C(C)OC(C)=O (some centres not stated) | 10.2 | 19
4 | CCCCC(C)CC(C)C(=O)N(C)[C@@H](CC(C)C)C(=O)N[C@H](C(=O)N(C)[C@H](C(=O)N1CCC[C@H]1C(=O)N1C(=O)C=CC1C)C(C)C)C(C)OC(C)=O (some centres not stated) | 4.1 | 20.5
5 | CCCCC(C)CC(C)C(=O)N(C)[C@@H](CC(C)C)C(=O)N[C@H](C(=O)N(C)[C@H](C(=O)OC)C(C)C)C(C)OO (some centres not stated) | 380 | 380
6 | CCCCC(C)CC(C)C(=O)N(C)[C@@H](CC(C)C)C(=O)N[C@H](C(=O)N(C)[C@H](C(=O)N1C[C@@H](O)C[C@H]1C(=O)OC)C(C)C)[C@@H](C)O (some centres not stated) | > 781 | > 781
7 | CCCCC(C)CC(C)C(=O)N(C)[C@@H](CC(C)C)C(=O)N[C@@H]1C(=O)N(C)[C@@H](C(C)C)C(=O)O[C@@H]1C (some centres not stated) | 8.1 | 10
8 | CCCCC(C)CC(C)C(=O)N(C)[C@@H](CC(C)C)C(=O)N[C@H](C(=O)N(C)[C@H](C(=O)N1CCC[C@H]1C(=O)N1C(=O)CCC1C)C(C)C)C(C)OC(C)=O (some centres not stated) | 341 | > 668
9 | CC1C=CC(=O)N1C(=O)[C@@H]1C[C@H](O)CN1 (some centres not stated) | > 2400 | > 2400
10 | CCCCC(C)CC(C)C(=O)N(C)[C@@H](CC(C)C)C(=O)N[C@H](C(=O)N(C)[C@H](C(=O)N1C[C@@H](O)C[C@H]1C(=O)N1C(=O)CCC1C)C(C)C)C(C)OC(C)=O (some centres not stated) | > 668 | > 668
11 | CCCCC(C)CC(C)C(=O)N(C)[C@@H](CC(C)C)C(=O)N[C@H](C(=O)N(C)[C@H](C(=O)N1CC(=O)C[C@H]1C(=O)N1C(=O)C=CC1C)C(C)C)C(C)OC(C)=O (single isomer, unassigned) | 5.4 | 5.4

Reference: ChEMBL document CHEMBL1127470, “Analogues of the marine immunosuppressant microcolin A: preparation and biological activity” (J Med Chem, 1994)
